Source: publication PMC4312176 (Chemical communications (Cambridge, England), 2015)

Legend:
[1] = target: T1, Plasmodium falciparum 1-deoxy-D-xylulose 5-phosphate reductoisomerase (PfDxr) (Plasmodium falciparum, UniProt Q8IKG4); assay: co-crystal structure; type: biochemical
T1 sequence (Q8IKG4 73-488): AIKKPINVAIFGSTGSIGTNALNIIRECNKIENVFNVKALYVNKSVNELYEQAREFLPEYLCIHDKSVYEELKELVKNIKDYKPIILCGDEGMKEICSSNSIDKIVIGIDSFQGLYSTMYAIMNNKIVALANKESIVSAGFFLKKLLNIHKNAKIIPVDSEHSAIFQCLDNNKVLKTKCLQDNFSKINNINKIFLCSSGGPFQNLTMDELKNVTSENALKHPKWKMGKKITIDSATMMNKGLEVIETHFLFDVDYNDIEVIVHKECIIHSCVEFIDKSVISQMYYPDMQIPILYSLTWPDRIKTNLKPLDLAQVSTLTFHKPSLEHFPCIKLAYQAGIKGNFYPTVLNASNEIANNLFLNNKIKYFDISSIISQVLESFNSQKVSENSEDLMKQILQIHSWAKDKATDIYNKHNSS

[2] = target: T1, Plasmodium falciparum 1-deoxy-D-xylulose 5-phosphate reductoisomerase (PfDxr); assay: inhibition of purified recombinant PfDxr, NADPH consumption assay; type: biochemical

Question: Which Ki [1] does the source give for CC(=O)N(O)CCCP(=O)(O)O [FR-900098] here?
Answer: Its Ki is 3.7 ± 0.9 nM.

Question: Which Ki [2] does the source give for CCC(=O)N(O)CCCP(=O)(O)O [FR-900098P] here?
Answer: The Ki was 0.92 ± 0.19 nM.
